Measurements as given in publication PMC12040169 (PLOS Biology, 2025).

Test: in vitro
Details: human, hela cells, % viability

Row | Structure (SMILES) | viability at 28.5 h, 10 µM [%]
1 | COc1ccccc1-c1ccc(CC2(C(=O)NC3CCCCC3)CCOCC2)cc1 [CBK286515] | 98.4
2 | COc1ccccc1-c1ccc(CC2(C(=O)NCC3CCCCC3)CCOCC2)cc1 [CBK286519] | 98.5
3 | COc1ccccc1-c1ccc(CC2(C(=O)NCCc3ccc(F)cc3)CCOCC2)cc1 [CBK286520] | 94.4
4 | CCC(CO)NC(=O)C1(Cc2ccc(-c3cc(C)cc(C)c3)cc2)CCOCC1 (centres unmarked) [CBK286522] | 90.8
5 | Cc1cc(C)cc(-c2ccc(CC3(C(=O)NCC4CCCOC4)CCOCC3)cc2)c1 (centres unmarked) [CBK286524] | 96.5
6 | CC(C)C(CO)NC(=O)C1(Cc2ccc(-c3ccc(F)c(F)c3)cc2)CCOCC1 (centres unmarked) [CBK286525] | 87.7
7 | COc1ccccc1-c1ccc(NC(=O)CCc2ccc3c(c2)n(C)c(=O)n3C)cc1 [CBK286527] | 93.1
8 | Cc1ccc(C2CCCN2C(=O)c2cccn(CC(=O)Nc3ccc(F)cc3)c2=O)cc1C (centres unmarked) [CBK286528] | 90.1
9 | O=C(Cc1ccccc1)N(Cc1ccco1)C1CCN(c2ccc3c(c2)OCCO3)CC1 [CBK286529] | 106
10 | N=c1n(CC(=O)O)c2ccccc2n1Cc1ccccc1 [CBK286531] | 108
11 | CC(C)C(C(=O)O)N1C(=O)C2C3C=CC(C3)C2C1=O (centres unmarked) [CBK286535] | 84
12 | CCCCC(C(=O)O)N1C(=O)C2CC=C(Cl)CC2C1=O (centres unmarked) [CBK286536] | 91.4
13 | Cn1c(=O)n(C)c2cc(CNCc3ccc(C(=O)O)cc3)ccc21 [CBK286538] | 95.8
14 | O=C(O)CC1C(=O)NCCN1CC(c1ccccc1)c1ccccc1 (centres unmarked) [CBK286539] | 77.5
15 | O=C(O)CCSc1nnc(-c2cccc(Br)c2)o1 [CBK286540] | 82.8
16 | Nc1cccc(S(=O)(=O)N2CCC(C(=O)O)CC2)c1 [CBK286541] | 88.2
17 | O=C(O)C1Nc2ccc(Oc3ccccc3)cc2C2C=CCC12 (centres unmarked) [CBK286542] | 80.8
18 | O=C(O)c1cn(CCN2C(=O)c3ccccc3C2=O)nn1 [CBK286543] | 91
19 | CC(C)C(=O)Nc1ccc2c(c1)C(=O)N(CCC(=O)O)C2=O [CBK286544] | 86.1
20 | Cc1n[nH]c2c1C(c1ccc(C(=O)O)cc1)C1=C(COC1=O)N2 (centres unmarked) [CBK286546] | 94.7
21 | O=C(O)/C=C/c1ccc(CNS(=O)(=O)c2ccccc2)o1 [CBK286549] | 86
22 | O=C(O)CNC(=O)CNC(=O)Cn1c(-c2ccccc2)cc2ccccc21 [CBK286550] | 89.1
23 | O=C(O)CN1C(=O)C(=O)/C(=C(O)\C=C\c2ccccc2)C1c1ccccc1 (centres unmarked) [CBK286551] | 86.8

Row | Structure (SMILES) | viability at 28.5 h, 10 µM [%]
24 | CSCCC(NC(=O)C1CCC(C)CC1)C(=O)O (centres unmarked) [CBK286552] | 87.5
25 | O=C(O)CCNC(=O)c1ccc(C#CC2(O)CCCCC2)cc1 [CBK286554] | 93.2
26 | Cn1cc(C2c3ccccc3C(=O)N2CC(=O)O)c2ccccc21 (centres unmarked) [CBK286555] | 90.2
27 | O=C(O)c1ccccc1NC1CC(=O)N(C2CCCCC2)C1 (centres unmarked) [CBK286556] | 91.3
28 | Cn1nc(CC(=O)Nc2ccccc2C(=O)O)c2ccccc2c1=O [CBK286558] | 88.9
29 | Cc1nn(-c2ccc(F)cc2)c2c1C(c1ccc(C(=O)O)cc1)CC(=O)N2 (centres unmarked) [CBK286561] | 101
30 | O=C(O)/C=C\C(=O)N(C1CCCCC1)C1CCCCC1 [CBK286562] | 92
31 | Cc1ccc(NC(=O)/C=C/C(=O)O)c(NC(=O)c2ccccc2)c1 [CBK286563] | 97.3
32 | CC1=C(C)CC(C(=O)Nc2ccc(C(=O)NCc3cccnc3)cc2)C(C(=O)O)C1 (centres unmarked) [CBK286567] | 78.8
33 | Cc1ccc(Oc2ccc(C(=O)NCC(=O)O)cc2)cc1C [CBK286570] | 84.5
34 | Cc1cc2oc(=O)cc(C)c2cc1NC(=O)c1ccccc1C(=O)O [CBK286572] | 92.1
35 | NC(=O)C1(N2CCCCC2)CCN(C(=O)CCCC(=O)O)CC1 [CBK286575] | 84.2
36 | CC(C(=O)O)N1C(=O)c2ccccc2C1c1c[nH]c2ccccc12 (centres unmarked) [CBK286576] | 106
37 | CC1CN(C(=O)c2ccccc2-c2ccccc2C(=O)O)CC(C)O1 (centres unmarked) [CBK286577] | 87.7
38 | N#Cc1ccc(Oc2ccc(C(=O)NCC(=O)O)cc2)cc1 [CBK286579] | 90.1
39 | O=C(O)CNC(=O)CCS(=O)(=O)c1ccc(F)cc1 [CBK286580] | 86.1
40 | CC(C)(CN1C(=O)c2ccccc2C1=O)C(O)C(=O)O (centres unmarked) [CBK286582] | 82.3
41 | Cc1ccc(S(=O)(=O)N2c3ccc(C(=O)O)cc3CC2C)cc1 (centres unmarked) [CBK286584] | 82.6
42 | COc1ccc(NC(=O)CCC(=O)N2CCC(C(=O)O)CC2)cc1 [CBK286588] | 100
43 | CC(C)C[C@H](NC(=O)N1CC(=O)Nc2ccccc21)C(=O)O [CBK286589] | 94.8
44 | Cc1c(C(=O)O)sc2c1c(=O)n(Cc1ccccc1)c(=O)n2CCN(C)C [CBK286590] | 95.3
45 | O=C(O)C1Cc2ccccc2C(=O)N1CCc1ccccc1 (centres unmarked) [CBK286592] | 87.4
46 | O=C(O)C1CCCCC1C(=O)N1CCc2ccccc2C1 (centres unmarked) [CBK286594] | 85

Row | Structure (SMILES) | viability at 28.5 h, 10 µM [%]
47 | O=C(O)c1cc(S(=O)(=O)N2CCCCC2)ccc1O [CBK286595] | 89.6
48 | CCCCN(Cc1ccccc1)C(=O)[C@H]1CCCC[C@H]1C(=O)O [CBK286596] | 85.3
49 | CC1(C)CC(=O)C2=C(C1)Nc1ccccc1N(CC(=O)O)C2c1cccs1 (centres unmarked) [CBK286597] | 83.6
50 | O=C(O)CC(CNC(=O)Cc1c[nH]c2ccccc12)c1ccc(Cl)cc1 (centres unmarked) [CBK286598] | 91.7
51 | COCc1cc(C)nc2c1C(=O)NC(c1ccccc1C(=O)O)N2Cc1ccccc1 (centres unmarked) [CBK286599] | 92.3
52 | CC(=O)Nc1ccc(CC(C(=O)O)c2ccccc2)cc1 (centres unmarked) [CBK286600] | 98.8
53 | O=C(O)c1ccccc1-c1ccccc1C(=O)Nc1ccc(O)cc1 [CBK286602] | 85.1
54 | O=C(O)C1CC=CCC1C(=O)c1c[nH]c2ccccc12 (centres unmarked) [CBK286603] | 90.7
55 | CC(C)[C@H](NC(=O)Cc1n[nH]c(=O)c2ccccc12)C(=O)O [CBK286607] | 95.2
56 | O=C(O)C[C@]1(C(=O)Nc2ccc(F)cc2)CC(/C=C/c2ccccc2)=NO1 [CBK286608] | 87.3
57 | CC(C)(CO)C(O)C(=O)NC1CCCC(C(=O)O)C1 (centres unmarked) [CBK286609] | 96
58 | O=C(O)CCC(=O)Nc1ccc2c(c1)Cc1ccccc1-2 [CBK286611] | 94.9
59 | O=C(O)c1ccc(NC(=O)c2cc(-n3cnnc3)ccc2Cl)cc1 [CBK286613] | 111
60 | Cc1nc(=O)c(-c2ccccc2)c(C)n1-c1ccc(OCC(=O)O)cc1 [CBK286615] | 106
61 | O=C(O)c1ccc(OCC(O)Cn2nnc3ccccc32)cc1 (centres unmarked) [CBK286616] | 103
62 | CC1CN(C(=O)/C=C/C(=O)O)c2ccccc2NC1=O (centres unmarked) [CBK286618] | 108
63 | CC(C)C[C@H](NC(=O)NCCN1CCOCC1)C(=O)O [CBK286619] | 99.4
64 | O=C(CC(C(=O)O)c1c[nH]c2ccccc12)c1ccc(Cl)cc1 (centres unmarked) [CBK286620] | 86.7
65 | O=C(O)c1nccnc1C(=O)N1CCC(O)(c2ccc(Cl)cc2)CC1 [CBK286621] | 87.6
66 | CC(=O)Nc1cc(NC(C)=O)c(C)c(C(=O)O)c1 [CBK286623] | 88.6
67 | O=C(O)C(c1c[nH]c2ccccc12)N1CCN(Cc2ccncc2)CC1 (centres unmarked) [CBK286624] | 76.2
68 | O=C(O)C1Cc2ccccc2CN1C(=O)c1ccccc1 (centres unmarked) [CBK286628] | 102
69 | O=C(O)c1ccc2c(c1)c(C(C(=O)O)N1CCCC1)cn2Cc1ccccc1 (centres unmarked) [CBK286633] | 90.1

Row | Structure (SMILES) | viability at 28.5 h, 10 µM [%]
70 | COc1ccc(OC)c2c1cc(C(=O)NC[C@H]1CC[C@H](C(=O)O)CC1)n2C [CBK286636] | 86.1
71 | COc1ccc2c(c1)c(C(C(=O)O)N1CCN(c3ccccn3)CC1)cn2CC(=O)O (centres unmarked) [CBK286637] | 98
72 | O=C(O)CCNc1cc2ccccc2cc1C(=O)O [CBK286640] | 80.7
73 | COc1cccc(C2=NO[C@@](CC(=O)O)(C(=O)NCc3ccccc3)C2)c1OC [CBK286641] | 83.4
74 | CC(C)C(=O)Nc1ccc2[nH]cc(C(C(=O)O)N3CCN(c4ccccc4)CC3)c2c1 (centres unmarked) [CBK286645] | 85.7
75 | Nc1cc(S(=O)(=O)C(F)(F)F)ccc1C(=O)O [CBK286646] | 87
76 | CCCCC(NC(=O)c1cc2ccccc2[nH]1)C(=O)O (centres unmarked) [CBK286647] | 85.9
77 | O=C(CC(CN1CCN(c2ccccn2)CC1)C(=O)O)NCc1ccccc1 (centres unmarked) [CBK286649] | 89
78 | O=C(O)COc1ccc(/C=C/c2nc3n(n2)C=COc2ccccc2-3)cc1 [CBK286650] | 80.2
79 | O=C(O)Cc1nnc(CNc2ccc(Cl)cc2)[nH]1 [CBK286651] | 81.7
80 | CN1CCN(C(C(=O)O)c2c[nH]c3cc(OCc4ccccc4)ccc23)CC1 (centres unmarked) [CBK286654] | 84.6
81 | CC(C)C[C@H](NC(=O)COc1ccc2nc3n(c(=O)c2c1)CCCCC3)C(=O)O [CBK286656] | 88.3
82 | CCOc1ccc(C(=O)CCNCC(=O)O)cc1 [CBK286657] | 94.4
83 | O=C(O)/C=C/C(=O)N(Cc1ccccn1)Cc1ccco1 [CBK286660] | 84.2
84 | Cc1nn(Cc2ccc(Cl)cc2)c(C)c1C(N)C(=O)O (centres unmarked) [CBK286661] | 89.7
85 | CC(=O)c1ccc(NC(=O)[C@@]2(CC(=O)O)CC(c3ccc(F)cc3)=NO2)cc1 [CBK286663] | 85
86 | O=C(O)C(c1c[nH]c2ccccc12)N1CCc2ccccc2C1 (centres unmarked) [CBK286664] | 84.5
87 | O=C(CCn1ccc2ccc(F)cc21)NC[C@H]1CC[C@H](C(=O)O)CC1 [CBK286666] | 86.2
88 | C=C(C)CN1CCN(C(C(=O)O)c2c[nH]c3ccc(OCc4ccccc4)cc23)CC1 (centres unmarked) [CBK286668] | 80.6
89 | CC(C)C(NC(=O)N1c2ccccc2NC(=O)C1C(C)C)C(=O)O (centres unmarked) [CBK286670] | 100
